Laboratory results taken from patent publication US20250332101A1, “Composition” (priority 2018, published 2025).
Entries after “also recorded” stand apart in the source; their conditions may differ. Blank lines part the entries; values can stand above or below the compound they belong to.

Tests used:
[1] = topical formulation, Sigurdsson et al; cited from earlier work
Aqueous solubility = type: physicochemical
[2] = test system: RGC in OHT Dark Agouti (DA) rats; type: in vivo; conditions: topical eye drops from two days prior to induction, three weeks, versus OHT only
[3] = test system: immortalized human corneal epithelial cell line (HCE-S); experiment: Cell toxicity test in corneal epithelial cells; type: cell-based; conditions: compared with 3-oxo-C12 HSL and Benzalkonium chloride (BAK)
Procedure: (§1) HCE-S cells (Immortalized Human Corneal Epithelial Cells) were cultured as a monolayer in 90% DMEM supplemented with 10% heat inactivated FBS and penicillin-streptomycin (100 U/mL). Cells were cultured at 37° C. in a humidified incubator with 5% CO2 and growth medium was replaced every three days. HCE-S populations were grown to 80% confluence before passage to 20% using 0.25% Trypsin-EDTA. Prior to each experiment cell populations were estimated using a haemocytometer and trypan blue exclusion assay.

HCE-S tight junctions = experiment: HCE-S transwell barrier: transepithelial resistance (TER); type: cell-based, human; conditions: 2 h exposure, up to 300 μM 3-OH-C12 HSL
Procedure: as §1
HCE-S barrier models for transcytosis assays were prepared using an adaptation of a previously described method (Reichl (2008)). HCE-S cells (5×10^4 cells/well) were seeded on transwell inserts (polycarbonate, 3 μm pore size, 1.13 cm^2) and maintained for 7 days refreshing the medium in the apical and basal chambers every second day. […] Prior to each experiment culture medium was replaced with phenol red free DMEM and barrier integrity measured via transepithelial resistance (TER). […]
FIGS. 21A-21D and FIGS. 22Ai-22Biii. Baseline TER was recorded before addition of […] 3-OH-C12 HSL in micelles (assuming 100% drug loading) or equivalent concentrations of micelles only (vehicle control) dissolved in phenol-red free culture medium for 2 h. After this time, TER was recorded before culture medium was replaced with fresh. […]

[4] = test system: HCE-S transwell barrier model; experiment: HCE-S transwell barrier: transcytosis of model drugs; type: cell-based, human; conditions: pre-treatment of HCE-S for 2 h with 300 μM
Procedure: HCE-S barrier models for transcytosis assays were prepared using an adaptation of a previously described method (Reichl (2008)). HCE-S cells (5×10^4 cells/well) were seeded on transwell inserts (polycarbonate, 3 μm pore size, 1.13 cm^2) and maintained for 7 days refreshing the medium in the apical and basal chambers every second day. After this time cells were cultured for a further 10 days at an apical air interface to encourage development of a multilayer barrier. Prior to each experiment culture medium was replaced with phenol red free DMEM and barrier integrity measured via transepithelial resistance (TER). […]
FIGS. 21A-21D and FIGS. 22Ai-22Biii. Baseline TER was recorded before addition of […] 3-OH-C12 HSL in micelles (assuming 100% drug loading) or equivalent concentrations of micelles only (vehicle control) dissolved in phenol-red free culture medium for 2 h. After this time, TER was recorded before culture medium was replaced with fresh. To the apical chamber, a model drug molecule (FITC-dextran or Avastin) was added and the concentration of this agent in the basolateral chamber was measured either by monitoring FITC fluorescence (FITC-dextran) versus a standard curve of known concentrations or using a commercially available Avastin sandwich ELISA kit as previously described (Davis et al. (2014)). […]

[5] = compared with 3-oxo-C12 HSL; cited from earlier work
[6] = test system: New Zealand albino male rabbits (eye); conditions: known; rabbits and humans; cited from earlier work

Compound: C[C@@H]1C[C@H]2[C@@H]3CCC4=CC(=O)C=C[C@]4(C)[C@@]3(F)[C@@H](O)C[C@]2(C)[C@@]1(O)C(=O)CO [dexamethasone]
entry into the retina by systemic absorption route [1]: 40% | entry into the retina via topical penetration [1]: 60%

solubility in distilled water (Aqueous solubility; 2 mg/mL curcumin): very poorly soluble
Compound: COc1cc(C=CC(=O)CC(=O)C=Cc2ccc(O)c(OC)c2)ccc1O [curcumin, 1,7-bis-(4-hydroxy-3-methoxyphenyl)-1,6-heptadiene-3,5-dione]

Compound: COc1cc(/C=C/C(=O)CC(=O)/C=C/c2ccc(O)c(OC)c2)ccc1O [FC]
RGC density / RGC loss (neuroprotective effect) [2]: did not have this effect; also recorded: no significant protective effect; also recorded: not FC treatment, significantly reduced RGC loss

Compound: CCCCCCCCCC(O)CC(=O)NC1CCOC1=O (centres unmarked) [3-OH-C12 HSL, 3-hydroxydodecanoyl homoserine lactone]
cell toxicity (tolerability) [3]: better tolerated | disruption of tight junctions (TER, percentage of control) (HCE-S tight junctions): reversible disruption of Tight junctions | transcytosis of 40 kDa FITC Dextran [4]: significantly enhanced | transcytosis of 149 kDa Avastin [4]: significantly enhanced | water solubility (Aqueous solubility): low water solubility | resistance to hydrolysis [5]: higher resistance to hydrolysis

Compound: Benzalkonium chloride [BAK]
ocular irritation [6]: potent ocular irritation
